Source: PMC9059924 (RSC Advances, 2019)

Experiments:
Type in all cases: cell-based, rat
primary cortical neurons = experiment: Viability of normal primary cortical neurons after administration; settings: 100 μM; for Cell survival rate of primary neurons after administration: normal neurons, control 1.00, mean ± SE
[1] = tested on: primary cortical neurons (OGD model); experiment: Cell viability of primary cortical neurons in oxygen glucose deprivation; settings: for Cell survival rate of primary neurons (OGD 12 h), Edaravone: positive drug 100 μM; for Neuroprotective activity of BA compounds in OGD model, in words: text SAR; for Sample in 100 μM: cytotoxic at this concentration: footnote c; for Improvement of survival rate of neuron (OGD 12 h), in words: P < 0.05 vs model
[2] = tested on: primary cortical neurons (OGD model); experiment: Morphology of OGD neurons under inverted microscope; settings: OGD 12 h

Compound	Cell survival rate of primary neurons after administration (primary cortical neurons) [%]	Sample in 100 μM: cytotoxic at this concentration ([1]; BA compounds)	also measured
CC1(C)C=Cc2cc(/C=C/C(=O)Oc3ccccc3)ccc2O1 [BN-05, (E)-3-(2,2-Dimethyl-2H-1-benzopyran-6-yl)-acrylate-phenyl ester]	0.86 ± 0.023		
5-methyl-2-phenyl-1,2-dihydropyrazol-3-one [Edaravone, reference compound]			Cell survival rate of primary neurons (OGD 12 h), Edaravone ([1]; BA table, model 0.49 ± 0.094, mean ± SE): 0.54 ± 0.0069 %; Cell survival rate of primary neurons (OGD 12 h), Edaravone ([1]; BN table, model 0.41 ± 0.014, mean ± SE): 0.56 ± 0.015 %
CC1(C)C=Cc2cc(/C=C/C(=O)Nc3ccccc3)ccc2O1 [BN-01, (E)-3-(2,2-Dimethyl-2H-1-benzopyran-6-yl)-N-phenylacrylamide]	0.85 ± 0.038		
COc1ccc(N2CCN(C(=O)/C=C/c3ccc4c(c3)C=CC(C)(C)O4)CC2)cc1 [BN-06, (E)-3-(2,2-Dimethyl-2H-1-benzopyran-6-yl)-1-(4-(4-methoxyphenyl)piperazin-1-yl)prop-2-en-1-one]	0.91 ± 0.028		
CC1(C)C=Cc2cc(NC(=O)/C=C/c3ccco3)ccc2O1 [BA-10, (E)-N-(2,2-Dimethyl-2H-1-benzopyran-6-yl)-3-(furan-2-yl)acrylamide]	0.84 ± 0.026		Neuroprotective activity of BA compounds in OGD model, in words ([1]; OGD 12 h): lost neuroprotective effect
COc1ccc(NC(=O)/C=C/c2ccc3c(c2)C=CC(C)(C)O3)cc1 [BN-02, (E)-3-(2,2-Dimethyl-2H-1-benzopyran-6-yl)-N-(4-methoxyphenyl)acrylamide]	0.93 ± 0.0080		
CC1(C)C=Cc2cc(NC(=O)/C=C/c3ccc(O)c(O)c3)ccc2O1 [BA-04, (E)-N-(2,2-Dimethyl-2H-1-benzopyran-6-yl)-3-(3,4-dihydroxyphenyl)acrylamide]	0.56 ± 0.014	— ^c	Cytotoxicity to normal neurons (reduced cell survival rate), in words (primary cortical neurons): cytotoxic; Neuroprotective activity of BA compounds in OGD model, in words ([1]; OGD 12 h): the activity was decreased or disappeared
COc1ccc(/C=C/C(=O)Nc2ccc3c(c2)C=CC(C)(C)O3)cc1 [BA-06, (E)-N-(2,2-Dimethyl-2H-1-benzopyran-6-yl)-3-(4-methoxyphenyl)acrylamide]	0.86 ± 0.018		
COc1ccccc1NC(=O)/C=C/c1ccc2c(c1)C=CC(C)(C)O2 [BN-04, (E)-3-(2,2-Dimethyl-2H-1-benzopyran-6-yl)-N-(2-methoxyphenyl)acrylamide]	0.88 ± 0.038		
CC1(C)C=Cc2cc(NC(=O)/C=C/c3ccc(O)cc3)ccc2O1 [BA-01, (E)-N-(2,2-Dimethyl-2H-1-benzopyran-6-yl)-3-(4-hydroxyphenyl)acrylamide]	0.75 ± 0.021	— ^c	Cytotoxicity to normal neurons (reduced cell survival rate), in words (primary cortical neurons): cytotoxic; Neuroprotective activity of BA compounds in OGD model, in words ([1]; OGD 12 h): the activity was decreased or disappeared
COc1cccc(NC(=O)/C=C/c2ccc3c(c2)C=CC(C)(C)O3)c1 [BN-03, (E)-3-(2,2-Dimethyl-2H-1-benzopyran-6-yl)-N-(3-methoxyphenyl)acrylamide]	0.89 ± 0.02		
CC1(C)C=Cc2cc(NC(=O)/C=C/c3cccs3)ccc2O1 [BA-11, (E)-N-(2,2-Dimethyl-2H-1-benzopyran-6-yl)-3-(thiophen-2-yl)acrylamide]	0.89 ± 0.054		Improvement of survival rate of neuron (OGD 12 h), in words ([1]; 1 μM): significantly improve the survival rate of neuron; Neuroprotective activity of BA compounds in OGD model, in words ([1]; OGD 12 h): maintained the same biological activity
CC1(C)C=Cc2cc(NC(=O)/C=C/c3cccc4ccccc34)ccc2O1 [BA-08, (E)-N-(2,2-Dimethyl-2H-1-benzopyran-6-yl)-3-(naphthalen-1-yl)acrylamide]	0.73 ± 0.025	— ^c	Improvement of survival rate of neuron (OGD 12 h), in words ([1]; 1 μM): significantly improve the survival rate of neuron
CC1(C)C=Cc2cc(NC(=O)/C=C/c3ccccc3)ccc2O1 [BA-07, (E)-N-(2,2-Dimethyl-2H-1-benzopyran-6-yl)-3-phenylacrylamide]	0.78 ± 0.046	— ^c	Cytotoxicity to normal neurons (reduced cell survival rate), in words (primary cortical neurons): cytotoxic; Improvement of survival rate of neuron (OGD 12 h), in words ([1]; 1 μM): significantly improve the survival rate of neuron
COc1ccc(/C=C/C(=O)Nc2ccc3c(c2)C=CC(C)(C)O3)cc1O [BA-03, (E)-N-(2,2-Dimethyl-2H-1-benzopyran-6-yl)-3-(3-hydroxy-4-methoxyphenyl)acrylamide]	0.77 ± 0.012	— ^c	Cytotoxicity to normal neurons (reduced cell survival rate), in words (primary cortical neurons): cytotoxic; Improvement of survival rate of neuron (OGD 12 h), in words ([1]; 1 μM): significantly improve the survival rate of neuron
CC1(C)C=Cc2cc(NC(=O)/C=C/c3cccnc3)ccc2O1 [BA-09, (E)-N-(2,2-Dimethyl-2H-1-benzopyran-6-yl)-3-(pyridin-3-yl)acrylamide]	0.49 ± 0.047	— ^c	Improvement of survival rate of neuron (OGD 12 h), in words ([1]; 1 μM): significantly improve the survival rate of neuron; Neuroprotective activity of BA compounds in OGD model, in words ([1]; OGD 12 h): maintained the same biological activity
CC1(C)C=Cc2cc(C(CC(=O)Nc3ccccc3)Nc3ccccc3)ccc2O1 (stereo not drawn) [BN-08, 3-(2,2-Dimethyl-2H-1-benzopyran-6-yl)-N-phenyl-3-(phenylamino)propanamide]	0.99 ± 0.019		
3-(2,2-Dimethyl-2H-1-benzopyran-6-yl)-N-(3-methoxyphenyl)-3-((3-methoxyphenyl)amino)propenamide [BN-10]	0.81 ± 0.058		Cell survival rate of primary neurons (OGD 12 h), Sample in 1 μM ([1]; BN compounds, 1 μM, model 0.41 ± 0.014, control 1.00, mean ± SE): 0.81 ± 0.0090 %; Cell survival rate of primary neurons (OGD 12 h), Sample in 30 μM ([1]; BN compounds, 30 μM, model 0.41 ± 0.014, control 1.00, mean ± SE): 0.77 ± 0.0035 %; Sample in 100 μM: cytotoxic at this concentration ([1]; BN compounds): — ^c
CC1(C)C=Cc2cc(/C=C/C(=O)N3CCN(c4ccc(O)cc4)CC3)ccc2O1 [BN-07, (E)-3-(2,2-Dimethyl-2H-1-benzopyran-6-yl)-1-(4-(4-hydroxyphenyl)piperazin-1-yl)prop-2-en-1-one]	0.96 ± 0.0063		Neuroprotective effect of BN compounds on survival of OGD neurons, in words ([1]; OGD 12 h, compared with model group / edaravone): good efficacy in neurons of OGD model; Morphology of neurons induced by OGD, in words [2]: significantly improved the morphology of neurons
COc1ccc(NC(=O)CC(Nc2ccc(OC)cc2)c2ccc3c(c2)C=CC(C)(C)O3)cc1 (stereo not drawn) [BN-09, 3-(2,2-Dimethyl-2H-1-benzopyran-6-yl)-N-(4-methoxyphenyl)-3-((4-methoxyphenyl)amino)propanamide]	0.80 ± 0.047		Sample in 100 μM: cytotoxic at this concentration ([1]; BN compounds): — ^c
CC1(C)C=Cc2cc(NC(=O)/C=C/c3ccc4c(c3)OCO4)ccc2O1 [BA-05, (E)-N-(2,2-Dimethyl-2H-1-benzopyran-6-yl)-3-(1,3-benzodioxole-5-yl)acrylamide]	0.85 ± 0.037		
COc1cc(/C=C/C(=O)Nc2ccc3c(c2)C=CC(C)(C)O3)ccc1O [BA-02, (E)-N-(2,2-Dimethyl-2H-1-benzopyran-6-yl)-3-(4-hydroxy-3-methoxyphenyl)acrylamide]	0.76 ± 0.025	— ^c	Cytotoxicity to normal neurons (reduced cell survival rate), in words (primary cortical neurons): cytotoxic
